Bridge positions count the residues as written; N and C are the ends. Square brackets hold non-standard residues; d marks the D form. Peptide text beside a SMILES is read from it. * marks the point of attachment. Ileψ(thiazoline)Cys = CC[C@H](C)[C@H](N)C1=N[C@H](C(=O)*)CS1; dOrn = NCCC[C@@H](N)C(=O)O
Columns and labels:
[1] = test system: S. aureus; experiment: Mouse skin infection model: S. aureus infection in abraded mouse skin treated with topical ointment; format: in vivo; details: for synergy with mupirocin in the skin infection model (in words): combination with mupirocin; for synergy with mupirocin in the skin infection model (in words) / synergy or additive effect with nisin in the skin infection model (in words): superficial wound model; for synergy or additive effect with nisin in the skin infection model (in words): combination with nisin
Experimental: (§1) Mouse Skin Infection Model: An overnight culture of S. aureus grown in tryptic soy broth (SA8; range from 1 to 6×10^9 CFUs/mL) was centrifuged at 4000×g for 10 minutes and resuspended in an equal volume of phosphate buffered saline (PBS). The bacteria were diluted to a percent transmittance of 40 (Spectronic 20D+) and diluted a subsequent 1:1000 in PBS for a final bacteria concentration of about 3×10^5. SKH1 (hrhr) hairless mice (Charles River) were sedated with 0.2 mL of ketamine (80 mg/kg) and xylazine (32 mg/kg) delivered intraperitoneally. The upper back of the mice were scrubbed with a 70% alcohol wipe and allowed to dry. Fine abrasions were made on the backs of the mice between the shoulders using 150 grit sandpaper. Bacteria were swabbed over the abraded area with a sterile, cotton-tipped applicator until the area was saturated with the solution.
Topical Ointment: 74 g of PEG 400 and 24 g of PEG 3350 were added to a 250 mL glass beaker and heated until all of the PEG 3350 was melted. […] Lysostaphin was first dissolved to a concentration of about 150 mg/mL in DI water before mixing into the ointment to give a final concentration of 2% (w/w).
Treatment of Infected Skin with Topical Ointment: Treatments aimed to eradicate S. aureus skin infections in the mouse model were started on the morning after infection (Day 1). […] The mice were sacrificed by CO2 asphyxiation on the morning of Day 3 and a 0.5-cm^2 patch of skin around the infected area was excised. The skin sample was disected and placed into a test tube containing 1 mL of 5 mg/mL proteinase K, 20 mg/mL esterase, and 20 mg/mL activated charcoal in PBS to neutralize the activity of the antibacterial agents. Bacteria were dislodged from the skin sample by sonication: 2 minute treatments per sample with alternating 5 seconds at 3 W and 5 seconds at 0 W in a Virsonic 600 with microtip (VirTis). After mixing by vortex, 50 μL of each sample was streaked onto blood agar plates, incubated at 37° C. overnight, and the colonies were counted and compared to untreated controls.
For the following data, except where noted in FIG. 2, all antibiotic formulations were in a common polyethylene glycol (PEG) ointment (PEG 400 plus PEG 3350).

[2] = test system: S. aureus strain resistant to mupirocin; experiment: Mupirocin-resistant S. aureus infection in abraded mouse skin; format: in vivo; details: FIG. 3
Experimental: as §1
Topical Ointment: 74 g of PEG 400 and 24 g of PEG 3350 were added to a 250 mL glass beaker and heated until all of the PEG 3350 was melted. […]
Treatment of Infected Skin with Topical Ointment: Treatments aimed to eradicate S. aureus skin infections in the mouse model were started on the morning after infection (Day 1). […] After mixing by vortex, 50 μL of each sample was streaked onto blood agar plates, incubated at 37° C. overnight, and the colonies were counted and compared to untreated controls.

[3] = test system: P. aeruginosa; experiment: P. aeruginosa infection in abraded mouse skin; format: in vivo; details: FIG. 4
[4] = test system: Staphylococcus aureus ATCC #6538; experiment: Pig partial thickness wounds inoculated with Staphylococcus aureus; format: in vivo
[5] = test system: S. aureus; experiment: In vitro MIC of nisin alone or in combination (log reduction of viable S. aureus); format: cell-based; details: FIG. 11
Experimental: In order to determine if nisin could function in a synergistic way with other antimicrobials to treat (e.g., kill and/or inhibit growth of) bacteria in vitro, the minimum inhibitory concentration (MIC) of nisin alone or nisin in combination with either mupirocin, neomycin or gentamicin were tested. The MIC was determined by calculating the log reduction of viable S. aureus following incubation with the amounts of nisin and other antimicrobials as indicated in FIG. 11.

[6] = test system: S. aureus; experiment: Suture skin infection model (deep tissue infection) in mouse; format: in vivo; details: deep cut, FIG. 13
Experimental: It was determined whether nisin and mupirocin, either alone or in combination with each other, would be able to treat S. aureus in a deep tissue infection model. A suture skin infection model was generated in which a deep cut (e.g., one needing sutures to close) was made in a mouse and S. aureus introduced into the incision. […] Thus, a combination of nisin and mupirocin can be used to treat a deep tissue infection as well as a […] infection.

[7] = test system: P. aeruginosa; details: previously shown; cited from earlier work

Compound | synergy with mupirocin in the skin infection model (in words) [1] | synergy with nisin in vitro (in words) [5] | synergy or additive effect with nisin in the skin infection model (in words) [1] | other results
CC[C@H](C)[C@H](N)C1=N[C@H](C(=O)N[C@@H](CC(C)C)C(=O)N[C@H](CCC(=O)O)C(=O)N[C@H](C(=O)N[C@H]2CCCCNC(=O)[C@H](CC(N)=O)NC(=O)[C@@H](CC(=O)O)NC(=O)[C@H](Cc3cnc[nH]3)NC(=O)[C@@H](Cc3ccccc3)NC(=O)[C@H]([C@@H](C)CC)NC(=O)[C@@H](CCCN)NC2=O)[C@@H](C)CC)CS1 [bacitracin] ({Ileψ(thiazoline)Cys}-L[dE]IK[dOrn]I[dF]H[dD]N; lactam 4-C) | did not synergize |  |  | 
C/C(=C\C(=O)OCCCCCCCCC(=O)O)C[C@@H]1OC[C@H](C[C@@H]2O[C@H]2[C@@H](C)[C@H](C)O)[C@@H](O)[C@H]1O [mupirocin] |  | does not synergize |  | decrease of infectious CFUs ([1]; abraded mouse skin, PEG ointment 3 times a day on Days 1 and 2, FIG. 1, for combinations: residual infections): 3 logs; activity against mupirocin-resistant S. aureus (in words) [2]: minimal activity; activity relative to nisin formulation (in words) [3]: does not add any additional activity; Staphylococcus aureus recovered from wounds ([4]; Day 7 post treatment, FIG. 8): 1.63 Log cfu/ml; Staphylococcus aureus recovered from wounds ([4]; two days after initial treatment, treated twice per day, FIG. 6): 4.96±0.8 Log CFU/ml; efficacy in treating S. aureus in suture infection model (in words) [6]: very little efficacy; activity against P. aeruginosa (in words) [7]: poor activity
gallidermin | did synergize |  | did not synergize | 
gentamicin |  | does not synergize | did synergize | 
neomycin |  | does not synergize | did not synergize | 

Source: patent US8697639B2, “Compositions and methods for treating bacteria” (Biosynexus Incorporated, priority 2005, dated 2014)
